Measurements: patent US20090172831A1, “Methods for the production of plants resistant to HPPD herbicides” (Syngenta Limited, priority 2000, published 2009)
Where “and” joins values, the source holds several entries; their conditions need not be identical. Equal values may be shown once. Read-outs that look alike come from different tables or passages of the source.

Columns and labels:
[1] = system: tobacco plants transformed to express wheat HPPD; assay: Tolerance of tobacco transformed with wheat HPPD to herbicides; type: in vivo; conditions: MS agar; a number of PCR+ve transformants (0.1), a sub-set (>0.2); listed as mesotrione
Text: These constructs were all transformed into Agrobacterium tumefaciens strain LBA4404, which in turn was used to transform tobacco, using methodology described previously.

P. fluorescens HPPD = P. fluorescens HPPD (Pseudomonas fluorescens, UniProt A0ACG8AE61); assay: Dissociation of enzyme/inhibitor complexes by exchange with 14C-labelled inhibitor (koff; Kd = koff/kon); type: binding
Sequence of P. fluorescens HPPD (A0ACG8AE61 entry or part of it): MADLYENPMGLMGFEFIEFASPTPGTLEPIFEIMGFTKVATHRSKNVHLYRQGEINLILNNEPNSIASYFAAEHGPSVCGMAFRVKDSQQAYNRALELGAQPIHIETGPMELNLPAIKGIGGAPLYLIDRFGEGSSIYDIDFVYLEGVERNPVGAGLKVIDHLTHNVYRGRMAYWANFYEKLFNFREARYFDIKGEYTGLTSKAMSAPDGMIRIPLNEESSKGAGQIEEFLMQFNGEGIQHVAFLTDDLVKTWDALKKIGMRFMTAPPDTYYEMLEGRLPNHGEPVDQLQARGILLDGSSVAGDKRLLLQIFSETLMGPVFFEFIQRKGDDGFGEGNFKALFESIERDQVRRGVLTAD
Text: Herbicidal inhibitors of HPPD are found here to have generally low values of koff (in the range less than 0.0003 s^−1, often less than 0.000001 s^−1). It will be appreciated that many suitable methods known in the art for determining such low koff values are suitable for working the current invention. These include measuring rates of exchange of radio or otherwise labelled inhibitors either with or away from the enzyme inhibitor complex. For example enzyme inhibitor complexes can readily be prepared by incubating HPPD preparations with labelled or unlabelled inhibitor and then, after suitable periods, optionally rapidly separating the thus formed enzyme inhibitor complex from excess inhibitor by any suitable method such as ultrafiltration, binding to filters or exchange down a gel filtration column. Exchange reactions with the, thus prepared enzyme inhibitor complex is then initiated by addition of, as appropriate, excess labelled or unlabelled inhibitor. HPPD preparations suitable for use in the methods of the current invention are relatively unpurified, buffer-exchanged, supernatant fractions of spun crude lysates of E. coli strains engineered to express the HPPD enzyme of interest at a level of, typically, about 0.25-10% of the total soluble protein. Many methods such as radiometric, fluorimetric, NMR, fluorescence depolarisation, EPR, Mossbauer, UV/VIS spectrophotometry etc. or phonon resonance can, in principle, be used to monitor the enzyme/ligand exchange reactions and, particularly in this case where the enzyme contains an iron atom at the ligand binding site. Optionally, the monitoring method may be continuous (as, for example, with scintillation proximity/bead-based methods) or, discontinuous, based upon collection of data at various timepoints wherein samples are removed and the bound and unbound label components rapidly separated and quantitated.
Values of koff can suitably be calculated by computer fitting based upon is numerical integration of the exchange data along with information on the active-site concentration of HPPD and upon kon values obtained as described below. […] In any event, koff values are always here calculated from the rate of the major slow exchange reaction. It will be appreciated that within the scope of the current invention many methods of making the desired kinetic comparisons are possible without explicit or rigorous determination of off rates but, based upon the same underlying principle, will achieve the same selection result. […]
Not all test inhibitors are readily available in a radiolabelled form. A more general method of measuring off rates is to first form the complex with unlabelled test inhibitor, to rapidly exchange the complex free of excess unlabelled inhibitor and to then start the exchange reaction by addition of an excess of a standard labelled inhibitor, the kinetic properties of which are already known. The reaction is then monitored and the relative proportions of bound and unbound label determined at various times. […] The latter is the method of choice when the rate of exchange is fast (t½<3 h).
In, variants of the above methods, off rates are measured either in the presence or absence of ˜25% v/v glycerol. In the presence of glycerol values obtained are generally ˜1.5-3× slower than in its absence although sometimes the change is outside this range or, even, in the other direction. Further examples of data obtained are depicted in the following Table 3.
Crude Extracts of recombinant E. coli strains expressing, in the one case, a control HPPD (from Arabidopsis) and, in the other, one or more test HPPD sequences are prepared as described in the preceding example. The titre of active sites and enzyme activity are also defined and measured as described in the preceding examples. […]

[2] = system: untransformed tobacco explants; assay: Explants on MS agar containing mesotrione, bleaching; type: in vivo; conditions: MS agar + 3% sucrose
Text: Explants (i.e. a leaf plus short segment of stem containing the auxiliary bud) are placed into MS agar (+3% sucrose) containing various concentrations of mesotrione (see above) from 0.02 to 2 ppm. In tobacco, for example, untransformed explants are fully bleached at 0.02 ppm. […] In these particular experiments, only the shoot that develops from the bud is bleached, the leaf on the explanted tissue remains green.

Arabidopsis HPPD = target: T1, Arabidopsis HPPD (Arabidopsis thaliana, UniProt P93836); assay: Inhibition of HPPD (E. coli extract) after pre-incubation with inhibitor; type: biochemical; conditions: read-out: inhibition (relative to controls)
T1 construct: made in house; host or cells: E. coli BL21 (DE3) codon+ RP
T1 sequence (P93836 1-445): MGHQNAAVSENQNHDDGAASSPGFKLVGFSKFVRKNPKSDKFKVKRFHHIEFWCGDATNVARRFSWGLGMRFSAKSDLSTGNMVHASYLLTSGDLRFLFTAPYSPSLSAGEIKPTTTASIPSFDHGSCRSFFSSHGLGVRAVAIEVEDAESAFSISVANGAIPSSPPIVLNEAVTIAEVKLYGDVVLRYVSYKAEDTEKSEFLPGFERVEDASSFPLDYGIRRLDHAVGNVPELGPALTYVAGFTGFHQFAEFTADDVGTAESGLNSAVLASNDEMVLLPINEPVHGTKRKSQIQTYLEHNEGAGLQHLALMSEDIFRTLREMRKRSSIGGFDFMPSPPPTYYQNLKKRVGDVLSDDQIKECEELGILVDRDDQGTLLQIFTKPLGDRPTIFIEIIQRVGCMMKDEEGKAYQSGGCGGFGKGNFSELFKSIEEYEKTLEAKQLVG
Protocol: Qualitative measurements of the differences in Kd values in respect of different HPPD inhibitors are obtained by pre-incubating enzyme with inhibitor and, then, subsequently, measuring the % inhibition. For example HPPD is isolated from maize seedlings, part purified and assayed by similar methods to those described by Schulz et al 1993 (FEBS LETS. 318, 162-166) and by Secor (1994) in Plant Physiol. 106, 1429-1433. Assays are run for 30 minutes and started with addition of radiolabelled hydroxyphenylpyruvate (final concentration ˜0.1-0.2 mM) following a 20-30 min period over which inhibitor is pre-incubated with the part-purified enzyme.
Using the same assay method but using HPPD from Arabidopis (obtained from E. coli cells transformed to express the Arabidopsis HPPD and prepared as an E. coli extract similar to the methods described by Garcia et al in Plant Physiol (1999) 119, 1507-1516) the following levels of inhibition (relative to controls) are observed with the following doses of herbicide versus Arabidopsis HPPD.

Wheat HPPD = Wheat HPPD (Triticum aestivum, UniProt A0A3B6NLC6); assay: kon from HPLC enzyme assay (progressive inhibition / timed pre-reaction); type: biochemical; conditions: for observed first order decay rate constant: 100 μM HPP (no inhibitor: 0.016)
Sequence of Wheat HPPD (A0A3B6NLC6 entry or part of it): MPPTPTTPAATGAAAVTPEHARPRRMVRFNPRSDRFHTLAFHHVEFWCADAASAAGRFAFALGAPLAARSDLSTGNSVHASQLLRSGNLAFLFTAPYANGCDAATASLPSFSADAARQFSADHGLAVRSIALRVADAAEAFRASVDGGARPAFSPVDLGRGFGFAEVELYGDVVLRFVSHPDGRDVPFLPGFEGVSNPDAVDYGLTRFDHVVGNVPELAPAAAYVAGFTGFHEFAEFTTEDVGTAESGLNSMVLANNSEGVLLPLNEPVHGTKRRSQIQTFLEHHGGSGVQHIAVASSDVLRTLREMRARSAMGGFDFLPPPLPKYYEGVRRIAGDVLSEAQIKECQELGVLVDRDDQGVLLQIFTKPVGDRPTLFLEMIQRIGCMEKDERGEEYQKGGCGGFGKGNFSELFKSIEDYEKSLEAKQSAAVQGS
Protocol: Assay buffer is 105 μM (or as appropriate) hydroxyphenylpyruvate (HPP) is freshly made up in 50 mM Bis-Tris-propane buffer at pH 7.0. Dilution buffer is 50 mM Bis-Tris-propane buffer at pH 7.0 containing 25 mM sodium ascorbate and 3.8 mg/l of bovine catalase (Sigma C3155˜50,000 units/mg). HPPD enzyme, freshly unfrozen from storage is kept at ice temperature and diluted, also at ice temperature, to an appropriate concentration in dilution buffer (typically, 2-8 μM) before use. Assays are started by addition of 5 μl of diluted enzyme to 100 μl of assay buffer at 25 C in an eppendorf centrifuge and stopped, at a series of times between 0 and 90 s by addition of 20 μl of 25% perchloric acid and whirlimixing. 80-100 μl of the contents of each eppendorf tube is transferred to an HPLC vial prior to separation by Reverse Phase HPLC. For HPLC, 40 μl is loaded at 1.5 ml/min onto an Aqua C18 5μ 75×4.6 mm column (silica is endcapped) equilibrated with 5.5% acetonitrile, 0.1% trifluoroacetic acid (buffer A) using an HP 1100 HPLC system. The column is eluted, also at 1.5 ml/min, using a 2 minute wash with buffer A, followed by a 2 min wash with a 30/70 mixture of buffer A/100% acetonitrile followed by a further 3.5 minute wash with buffer A (in between uses the column is stored in 65% acetonitrile/water). The elution of HGA (homogentisic acid) and HPP(hydroxyphenylpyruvate) is monitored using a UV flow cell and quantitated via integration of peak absorbance at 292 nm. HGA elutes at around 2 minutes and HPP elutes later. A standard set of concentrations of HGA are used to provide a standard curve in order to calibrate the UV absorbance of the HGA peak versus HGA concentration.
In FIG. 3 assays containing 100 μM HPP substrate were started with addition of wheat HPPD to a final concentration of ˜19 nM and stopped at the times indicated.
In a more direct assay-based method for measuring kon values, test HPPD enzyme is reacted with inhibitor for a range of times and then the inhibition reaction is effectively stopped by addition of a high concentration of the (competitive) substrate HPP. […]

dicot plants = assay: Herbicidal activity versus dicot plants averaged over 6 or more species; conditions: in vivo
Text: Activity versus dicot plants refers here to herbicidal activity averaged over a range of 6 or more of those dicot weed and crop species usually used in screens used for compound discovery in the agrochemical community. Herbicidal activity versus dicot plants also refers here to that activity which is due to the inhibitor per se rather than due to some, potentially more herbicidal, metabolite of it which may be formed in planta or otherwise.

| Structure (SMILES) | concentration tolerated with no indication of bleaching / plants looking normal [1] | Kd (P. fluorescens HPPD; Kd, value obtained + glycerol (in parentheses)) [nM] | Kd (P. fluorescens HPPD; Kd, without glycerol, Kd = koff/kon) [nM] | concentration at which explants are fully bleached [2] [ppm] | inhibition at 0.001 µM (Arabidopsis HPPD; 1 nM) [%] | inhibition at 0.01 µM (Arabidopsis HPPD; 10 nM) [%] | inhibition at 0.1 µM (Arabidopsis HPPD; 100 nM) [%] | inhibition at 1 µM (Arabidopsis HPPD; 1000 nM) [%] | kon (Wheat HPPD) [M⁻¹ s⁻¹] | observed first order decay rate constant (Wheat HPPD; 2.5 μM inhibitor) [s⁻¹] | observed first order decay rate constant (Wheat HPPD; 10 μM inhibitor) [s⁻¹] | Kd (P. fluorescens HPPD; without glycerol, Kd = koff/kon, read-out: Kd) [nM] | koff (P. fluorescens HPPD; − glycerol) [s⁻¹] | herbicidal activity versus dicot plants relative to mesotrione (dicot plants) |
| --- | --- | --- | --- | --- | --- | --- | --- | --- | --- | --- | --- | --- | --- | --- |
| CS(=O)(=O)c1ccc(C(=O)C2C(=O)CCCC2=O)c([N+](=O)[O-])c1 [Structure I, 2-(Nitro-4-methanesulphonylbenzoyl)-cyclohexane-1,3-dione, reference compound] | 0.1 ppm and > 0.2 ppm | 0.2 | 0.114 | 0.02 | 42 | 95 | 100 | 100 | – | – | – | – | – | – |
| Cc1nc(C(F)(F)F)ccc1C(=O)C1C(=O)C2CCC(C2)C1=O (centres unmarked) [Structure II] | – | – | – | – | – | – | – | – | 48000 to 57200 | 0.029 | 0.06 | 2.17 | 5e-05 | at least a quarter of the herbicidal activity of mesotrione |
